Data taken from patent US20130012440A1, “PREVENTIVE AND/OR THERAPEUTIC AND/OR AGGRAVATION SUPPRESSING AGENT FOR HUMAN ARTHRITIS DEFORMANS” (ASAHI KASEI PHARMA CORPORATION, priority 2009, published 2013).
Marks after values point to notes of the source that are not given here.

Legend:
[1] = test system: knee osteoarthritis patients; details: cited from earlier work
[2] = test system: spontaneous-onset guinea pig model; details: cited from earlier work
[3] = test system: mice subjected to orchiectomy; details: cited from earlier work
[4] = test system: rats subjected to ovariectomy; details: cited from earlier work
[5] = test system: hip osteoarthritis; details: systematic review of clinical results; cited from earlier work
[6] = test system: monkeys subjected to ovariectomy; details: cited from earlier work
[7] = test system: cartilage cells acquired from knee osteoarthritis patients; details: cited from earlier work
[8] = test system: rabbit model of meniscus damage; details: cited from earlier work
[9] = test system: rabbit model of anterior cruciate ligament transection; details: cited from earlier work
[10] = test system: female patients diagnosed with primary osteoporosis; assay: Test Example 2: onset and exacerbation of knee osteoarthritis during once-weekly subdermal administration (placebo vs 200-unit group); format: in vivo, human
Protocol: Two tablets of a calcium agent (containing 500 mg of precipitated calcium carbonate (200 mg of calcium) per tablet) were further administered orally once per day to the placebo group and the 200-unit administration group.
(§1) During the course of administration, both groups were prohibited from concurrent usage of calcitonin formulations, activated vitamin D3 formulations, vitamin K formulations, ipriflavone formulations, formulations of salts of bisphosphonic acid, estrogen formulations, anabolic-hormone formulations, doctor-prescribed calcium formulations (excepting the aforedescribed calcium agent administered as two tablets per day), and other medicinal agents thought to exert an effect on bone metabolism.
(§2) The attending physicians evaluated knee osteoarthritis according to the diagnostic criteria of each medical treatment facility on the basis of, e.g., the chief complaints of the patient, such as knee-joint pain and knee pain.

[11] = test system: female patients diagnosed with primary osteoporosis; assay: Test Example 1: onset of knee osteoarthritis during once-weekly subdermal administration (5- vs 100-unit groups); format: in vivo, human; details: for Frequency of onset (%) of knee osteoarthritis / Number of cases of onset of knee osteoarthritis: subdermal once per week
Protocol: (§3) Female patients diagnosed with primary osteoporosis on the basis of the diagnostic criteria of Non-Patent Document 42 were given intermittent subdermal administrations of 5 or 100 units of an acetate salt of human PTH (1-34), which was prepared using the method of Takai (Patent Documents 4 and 5, Non-Patent Document 43), once per week (accordingly, there was a 5-unit administration group and a 100-unit administration group). The measured activity of the acetate salt of human PTH (1-34) was 3300 units/mg in the present test example according to the article of Marcus et al. (Non-Patent Document 44).
An injectable formulation containing 5 or 100 units per vial of the acetate salt of human PTH (1-34) was dissolved into 1 mL of normal saline solution at the time of usage, and 1 mL/person was subdermally administered to the 5-unit and 100-unit groups. Two tablets of a calcium agent (containing 500 mg of precipitated calcium carbonate (200 mg of calcium) per tablet) were further administered orally once per day to the 5-unit and 100-unit groups.
as §1, §2
The frequency of onset of knee osteoarthritis in the 5-unit administration group in the present test example was also compared to the natural frequency of onset. The value used for the natural frequency of onset resulted from dividing the 174,000 female arthritis patients of ages 70 through 74 throughout the country in the Japanese Nationwide Patient Survey (2005, edited by the Statistics and Information Department of the Minister's Secretariat of the Ministry of Health, Labour and Welfare, [published by] the Health and Welfare Statistics Association) by the population of 3,597,754 women of the same age throughout the country according to the Statistics Bureau of the Ministry of Internal Affairs and Communications.

[12] = test system: mice; assay: Fatal toxicity after administration to mice; format: in vivo; details: 3300 or 2000 units/kg (body weight), intravenous, intramuscular, subdermal, or oral routes
From the text: (§4) The aforedescribed PTH or PTH derivative has extremely low toxicity.

[13] = test system: adenyl cyclase from rat kidney; assay: Activity measurement according to the article of Marcus et al.; format: biochemical; details: method of Marcus et al. (Non-Patent Document 44)
Protocol: [Non-Patent Document 44] Marcus, R et al. “Bioassay of parathyroid hormone in vitro with a stable preparation of adenyl cyclase from rat kidney” Endocrinology 85: 801-810, 1969. […]
as §3

[14] = test system: rats; assay: Fatal toxicity after administration to rats; format: in vivo; details: 3300 or 2000 units/kg (body weight), intravenous, intramuscular, subdermal, or oral routes
From the text: as §4

[15] = test system: rat model of osteoarthritis; details: cited from earlier work
[16] = listed as printed as 100-unit administration group, subdermal once per week
[17] = 5-unit administration group, 165 cases

In the case of O=P(O)(O)C(O)(Cc1cccnc1)P(=O)(O)O [risedronate], the Medicinal effects ([1]; clinical tests on knee osteoarthritis patients) is listed as “medicinal effects were not found” and the “Effect of limiting cartilage degeneration” value [2] is listed as “found to have an effect of limiting cartilage degeneration”.

In the case of Estrogen, the “Activity for improving cartilage degeneration” value [3] is given as “activity for improving cartilage degeneration”, the “Activity for improving cartilage degeneration” value [4] is given as “activity for improving cartilage degeneration” and the “Effects of estrogen therapy” value [5] is given as “has not been found to have clear effects”. The “Risk of hip osteoarthritis” value [5] was “increase the risk of hip osteoarthritis” and the “Activity for improving cartilage degeneration” value [6] was “activity for improving cartilage degeneration”.

For Hyaluronate, the “Limiting apoptosis of cartilage cells” value [7] is listed as “activity for limiting apoptosis of cartilage cells”, the “Limiting the production of enzymes that degrade the cartilage matrix” value [7] is listed as “showed activity for limiting the production of enzymes that degrade the cartilage matrix” and the “Efficacy as a medicine for limiting the progression of the disease” value ([1]; meta-analyses of clinical tests on knee osteoarthritis patients) is listed as “in doubt”. The Accelerating healing [8] was “accelerating healing” and the “Activity for limiting disease progression” value [9] was “activity for limiting disease progression”.

In the case of human PTH (1-34), the “Frequency of onset of knee osteoarthritis, 200-unit group compared with placebo group” value ([10]; 200 units once per week) is reported as “less than that in the placebo group”, the “Onset and exacerbation of knee osteoarthritis in osteoporosis patients” value ([10]; administration to osteoporosis patients) is reported as “clearly and markedly limits the onset and exacerbation of knee osteoarthritis” and the “Exacerbation of knee osteoarthritis: Number of cases of exacerbation” value [10, 16] is reported as 4. For the same molecule, the “Onset of knee osteoarthritis: Frequency of onset (%)” value [10, 16] was 5.4%, the “Onset of knee osteoarthritis: Number of cases of onset” value [10, 16] was 15 and the “Frequency of onset (%) of knee osteoarthritis” value [11, 17] was 6.67%. For the same molecule, the “Number of cases of onset of knee osteoarthritis” value [11, 17] was 11, the “Frequency of onset of knee osteoarthritis, 5-unit group compared with natural frequency of onset” value ([11]; 5 units once per week, 6.67% vs natural 4.84%) was “statistically significant difference was not found” and the “Number of cases of onset of knee osteoarthritis” value ([11]; 100-unit administration group, 314 cases) was 4. For the same molecule, the “Frequency of onset (%) of knee osteoarthritis” value ([11]; 100-unit administration group, 314 cases, p < 0.05 vs 5-unit group) was 1.27* %, the “Frequency of onset of knee osteoarthritis, 100-unit group compared with 5-unit group” value ([11]; 100 units once per week vs 5 units, p<0.05) was “significantly less than that in the 5-unit administration group” and the “Onset of knee osteoarthritis, 100-unit group compared with natural onset” value ([11]; 100 units once per week, natural frequency of onset 4.84%) was “significantly more limited onset of knee osteoarthritis than in the case of natural onset”. The Fatal toxicity [12] was “never observed”, the Measured activity [13] was 3300 units/mg and the Fatal toxicity [14] was “never observed”.

B1: parathyroid hormone (protein, UniProt P01270 32-115, looked up)
Parathyroid hormone: SVSEIQLMHNLGKHLNSMERVEWLRKKLQDVHNFVALGAPLAPRDAGSQRPRKKEDNVLVESHEKSLGEADKADVNVLTKAKSQ
modifications: Parathyroid hormone
For B1, the Therapeutic effect [15] is given as “a slight therapeutic effect”.
